Source: patent publication EP1631829B1, “METHOD AND APPARATUS FOR CHARACTERIZATION OF INTERACTIONS” (GE Healthcare Bio-Sciences AB, priority 2003, dated 2004)

Target: T1, HSA (Homo sapiens, UniProt P02768)
T1 construct: purchased Sigma A 3782
Test: two-sample (dual) gradient pulse injection SPR assay, site availability of drugs binding to HSA
Details: digitoxin and warfarin, 50 µM each, added individual responses vs mixture, 25 °C

T1 sequence (P02768 25-609): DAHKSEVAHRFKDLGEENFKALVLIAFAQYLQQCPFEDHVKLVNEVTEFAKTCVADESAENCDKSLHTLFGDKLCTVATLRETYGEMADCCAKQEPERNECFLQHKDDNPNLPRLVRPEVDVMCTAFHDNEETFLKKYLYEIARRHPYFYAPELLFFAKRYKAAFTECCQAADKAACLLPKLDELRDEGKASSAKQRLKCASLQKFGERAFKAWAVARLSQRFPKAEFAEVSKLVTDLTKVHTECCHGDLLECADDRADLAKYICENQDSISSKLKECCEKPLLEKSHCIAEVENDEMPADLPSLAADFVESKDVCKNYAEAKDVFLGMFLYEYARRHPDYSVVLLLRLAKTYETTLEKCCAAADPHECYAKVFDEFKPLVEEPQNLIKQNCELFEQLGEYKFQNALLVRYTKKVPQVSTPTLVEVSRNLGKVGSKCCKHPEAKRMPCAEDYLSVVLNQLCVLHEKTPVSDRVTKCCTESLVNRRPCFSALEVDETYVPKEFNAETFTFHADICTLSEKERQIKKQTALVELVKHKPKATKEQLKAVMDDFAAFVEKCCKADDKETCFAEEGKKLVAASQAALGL

For C[C@H]1O[C@@H](O[C@H]2[C@@H](O)C[C@H](O[C@H]3[C@@H](O)C[C@H](O[C@H]4CC[C@@]5(C)[C@H](CC[C@@H]6[C@@H]5CC[C@]5(C)[C@@H](C7=CC(=O)OC7)CC[C@]65O)C4)O[C@@H]3C)O[C@@H]2C)C[C@H](O)[C@@H]1O [Digitoxin, digitoxin], the “binding site relation on HSA” value was “non-competitive binders”.
